Measured values from paper PMC10877577 (ACS Chemical Biology, 2024).
“Also recorded” adds a separate entry of the source.

Assays:
aMinoC1-peptide complex = assay: SPR rechallenge: small-molecule-driven dissociation of peptide-Fc from immobilized aMinoC1; type: binding; conditions: peptide-Fc 100 nM, small molecule 1 μM
Experimental: Binding assays were carried out using 1x HBS-EP+ running buffer. Various concentrations (2.5 μM with 2-fold serial dilutions) of the analyte were injected for 150 s at 30 μL/min with 150 s dissociation time. Glycine-HCl (pH 2.0) was used as the regeneration buffer for the sensor chips. For the rechallenge experiment, aMinoC1 was immobilized on a CM5 sensor chip and CX7C peptide-Fc conjugates were loaded at 100 nM and injected as the analyte for 150 s at 30 μL/min. Following the injection of peptide-Fc, a small molecule at 1 μM was injected for 300 s at 30 μL/min, using dual injection function on a Biacore 8k instrument, to dissociate the peptide-Fc from the aMinoC1-peptide complex. The system was then washed using HBS-P^+ buffer for 300 s at 30 μL/min prior to rechallenge with peptide-Fc. The cycle was repeated three times following a final dissociation step of 300 s. For the alanine scanning experiments, the anti-minocycline antibody (sdAb-muIgG2a-Fc fusion) was captured on a Protein A series S sensor chip, to a density of 3000 RU. […] Glycine-HCl (pH 1.5) was used as the regeneration buffer. In each case, flow cell 1 was used for reference subtraction, and a “0 concentration” sensogram of buffer alone was used as a double reference subtraction to factor for drift. Data analysis was carried out using Biacore T200 Evaluation Software, version 3.0, and Biacore Insight evaluation software. The 1:1 Langmuir binding model was used to calculate the association (ka), dissociation (kd) rate constants, and equilibrium dissociation constant (KD).

[1] = system: HEK-293T transduced with the aMinoC1 transmembrane receptor; assay: Flow cytometry of peptide-muIgG2a Fc binding to cells with aMinoC1 transmembrane receptor; type: cell-based, human; conditions: GWARA, HWAQA, PWAYS, QWAMM, increasing minocycline, caffeine 100 μM
Experimental: Flow cytometry was performed using the MACSQuant Analyzer 10 or MACSQuant X (Miltenyi Biotec). All flow cytometry data was analyzed using FlowJo v.7.6.2 software (Tree Star Inc., Ashland, OR). Cell staining was carried out by incubation with PBS containing the recommended concentration of antibodies at RT for 30 min. PBS washes were carried out between antibody staining. Cell viability was determined using viability dye SYTOX Blue Dead Cell Stain (ThermoFisher) prior to flow cytometric analysis. Cells were first gated for singlet population identified by FSC-H and FSC-A. Next, live cells were identified using a viability dye, followed by gating for target cell populations. The antibodies used in the study are as follows: CD3 PECy7 (Biolegend, 317334), Human CD34 APC-conjugated antibody (R&D system, FAB7227A), Human CD34 Alexa Fluor 488-conjugated antibody (R&D system, FAB7227G), Streptavidin PE (Biolegend, 405204), APC antihuman EGFR antibody (Biolegend, 352905), Alexa Fluor 488 antihuman EGFR antibody (Biolegend, 352907), PE anti-HA.11 Epitope Tag antibody (Biolegend, 901517), Anti-M13-HRP (Sino Biologics, 1197 mm05T-H), Anti-Myc-HRP (Genscript, A00863), and SYTOX Blue Dead Cell Stain (ThermoFisher, S10274).

[2] = system: MinoCAR-transduced PBMC against SKOV3 EGFR+ target cells; assay: Tunability and reversibility assays (Incucyte kinetics of cytotoxicity); type: cell-based, human; conditions: minocycline 0 to 10 μM, 1:2 E/T
Experimental: EGFR+ SKOV3-mKate cells were seeded at 1.0 × 10^4 cells per well in a TC-treated flat-bottomed 96-well plate. For reversibility experiments, MinoCAR ON–OFF kinetics were tested by preactivating CAR T cells by incubating cells for 2 h on plates precoated with recombinant EGFR (10 μg/mL). CAR T cells were washed using 15 mL of PBS prior to coculture. […] Cells were then washed using 15 mL of PBS prior to coculture. Untreated CAR T cells were used as a control and were directly preceded to coculturing set. […] The Incucyte ZOOM Live-Cell Analysis System was used to carry out image capture at a rate of one image every 1 h for 150 h. […] The image capture rate of each condition was set at 1 image per hour for 72 h.

[3] = system: MinoUniCAR-transduced PBMCs; assay: MinoUniCAR IFN-γ release with EGFR-peptide adaptor; type: cell-based, human; conditions: 10 vs 0 μM minocycline
Experimental: (§1) IFN-γ, IL2, and IL12 secretion was measured by collecting the supernatant from the respective cell-based assay and frozen at −20 °C prior to analysis by ELISA. IFN-γ, IL2, and IL12 ELISAs were carried out using the Human IFN-γ ELISA MAX Deluxe kit, Human IL2 ELISA MAX Deluxe kit, and Human IL12 (p70) ELISA MAX Deluxe kit in accordance with the manufacturer’s instructions (BioLegend).
Transduced PBMCs were stained using RQR8 expression and V5 markers. Cells were then normalized to 50% efficiency by diluting with nontransduced T cells. The tumor-targeting adaptor protein (EGFR sdAb) fused to the GWARA peptide was separately expressed by CHO cell transient transfection and purified by His-tag chromatography. […] IFN-γ secretion was measured as described above.

[4] = system: MyD88/CD40 signaling in transduced PBMCs; assay: IFN-γ secretion of PBMCs with aMinoC1/GWARA-MyD88/CD40 module; type: cell-based, human; conditions: increasing concentrations of minocycline
Experimental: as §1

[5] = in vivo; cited from earlier work

Structure (SMILES): CN(C)c1ccc(O)c2c1C[C@H]1C[C@H]3[C@H](N(C)C)C(O)=C(C(N)=O)C(=O)[C@@]3(O)C(O)=C1C2=O [minocycline]
- GWARA-Fc dissociation from immobilized aMinoC1 on small-molecule injection (aMinoC1-peptide complex): acceleration of GWARA-Fc dissociation; also recorded: specifically reversed
- peptide-Fc (HWAQA, PWAYS and QWAMM) dissociation from immobilised aMinoC1 on small-molecule injection (aMinoC1-peptide complex): acceleration
- peptide-muIgG2a Fc binding to membrane-bound aMinoC1 in presence of small molecule [1]: Dose-dependent reduction of peptide-muIgG2a Fc binding
- peptide-muIgG2a Fc binding to membrane-bound aMinoC1 in presence of small molecule ([1]; listed as Minocycline): concentration-dependent reduction in peptide binding
- SKOV3 target cell killing kinetics [2]: dose-dependent decrease in SKOV3 target cell killing
- cytokine (IFN-γ) reduction [3]: 10 fold
- decrease of IFN-γ secretion [4]: 2 fold
- blood–brain barrier crossing [5]: can cross the blood–brain barrier
- half-life in blood [5]: 12 to 24 h
- time of serum concentration peak [5]: 2 to 3 h
